“Also recorded” adds a separate entry of the source.

Common to all, as to type: biochemical
Experiment [1] concerns the target T1, 11β-HSD2 (Homo sapiens, UniProt P80365).
T1 construct: purchased Gentest (Woburn, MA); host or cells: human kidney microsomes (tissue)
T1 sequence (P80365 1-405): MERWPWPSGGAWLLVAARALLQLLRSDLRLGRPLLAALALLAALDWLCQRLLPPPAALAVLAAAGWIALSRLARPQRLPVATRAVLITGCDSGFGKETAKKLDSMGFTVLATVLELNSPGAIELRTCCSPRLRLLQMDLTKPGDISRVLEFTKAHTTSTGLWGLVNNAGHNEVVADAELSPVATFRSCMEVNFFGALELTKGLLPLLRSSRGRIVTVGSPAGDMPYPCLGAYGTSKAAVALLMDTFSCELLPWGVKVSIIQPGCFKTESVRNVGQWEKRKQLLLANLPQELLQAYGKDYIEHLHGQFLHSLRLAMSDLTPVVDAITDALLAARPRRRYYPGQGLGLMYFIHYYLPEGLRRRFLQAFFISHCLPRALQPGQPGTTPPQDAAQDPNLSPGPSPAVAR
The experiment is described as follows: 11β-HSD2 activity in human kidney microsomes. To be noted: 100 μM. The protocol: (§1) Measurement of 11β-HSD2 Activity in Rat, Mouse, and Human Kidney Microsomes
The 11β-HSD2 assay was based on rat, mouse, and human kidney microsomes, as previously described ([Ge et al., 2005]). In brief, the 11β-HSD2 activity assay tube contained 25 nM substrate (cortisol for humans, CORT for rats and mice). Renal microsomes (10 μg) were incubated with substrate and 0.2 mM NAD^+ for 30 min. Other procedures were described above. The percentage conversion of cortisol to cortisone (humans) or CORT to 11DHC (rats and mice) was calculated by dividing the radioactive count of an 11keto-steroid product by the total count associated with both substrate and product.

The next experiment deals with T2, 11β-HSD1 (Homo sapiens, UniProt P28845).
T2 construct: purchased Gentest (Woburn, MA); host or cells: human liver microsomes (tissue)
T2 sequence (P28845 whole entry): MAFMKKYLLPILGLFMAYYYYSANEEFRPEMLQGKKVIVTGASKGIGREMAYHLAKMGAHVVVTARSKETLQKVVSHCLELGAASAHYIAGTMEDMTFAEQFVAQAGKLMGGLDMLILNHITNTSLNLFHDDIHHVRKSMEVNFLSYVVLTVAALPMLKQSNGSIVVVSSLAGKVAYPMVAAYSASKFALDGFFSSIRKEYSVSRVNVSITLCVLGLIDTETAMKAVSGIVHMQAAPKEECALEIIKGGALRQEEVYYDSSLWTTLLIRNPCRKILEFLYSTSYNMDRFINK
Description: 11β-HSD1 reductive activity in human liver microsomes. The protocol: Determination of 11β-HSD1 in Rat, Mouse, and Human Liver Microsomes
The reductive activity of 11β-HSD1 in rat, mouse, and human liver microsomes was measured as previously described ([Ge et al., 2005]). In short, the 11β-HSD1 activity assay tube contained 25 nM substrate, 11DHC (for rats or mice) or cortisone (for humans), spiked with 60,000 dpm of each 3H-steroid. 11β-HSD1 activity was measured using 11-DHC or cortisone as a substrate. A 25 nM steroid substrate is used because the concentration is within the physiological concentration range. Rat (10 μg), mouse (10 μg) and human (4 μg) liver microsomes were incubated with 11-ketosteroids, 0.2 mM NADPH, and various concentrations (10^−10–10^−5 M) of drug candidates at 37 °C for 60–90 min. The inhibitory ability of the chemical relative to the control (DMSO solvent) was measured. […] The reaction was stopped by adding 10 µL of 1 mM glycyrrhetinic acid and 1 ml of ice-cold ether. […] The steroids in chloroform and methanol (90:10, v/v) were chromatographically separated on a thin layer plate, and radioactivity was measured using a scanning radiometer (System AR2000, Bioscan Inc., Washington, DC, United States). The percentage of 11DHC being converted to CORT or cortisone being converted to cortisol can be calculated by dividing the radioactivity count of 11-OH-steroids by the total count. […]
In general terms: Liver microsomes are vesicles of endoplasmic reticulum, rich in cytochrome P450 enzymes.

For experiment [2], the target named is T3, 11β-HSD2 (Mus musculus, UniProt P51661).
T3 construct: from tissue; host or cells: mouse kidney microsomes prepared in house
T3 sequence (P51661 1-386): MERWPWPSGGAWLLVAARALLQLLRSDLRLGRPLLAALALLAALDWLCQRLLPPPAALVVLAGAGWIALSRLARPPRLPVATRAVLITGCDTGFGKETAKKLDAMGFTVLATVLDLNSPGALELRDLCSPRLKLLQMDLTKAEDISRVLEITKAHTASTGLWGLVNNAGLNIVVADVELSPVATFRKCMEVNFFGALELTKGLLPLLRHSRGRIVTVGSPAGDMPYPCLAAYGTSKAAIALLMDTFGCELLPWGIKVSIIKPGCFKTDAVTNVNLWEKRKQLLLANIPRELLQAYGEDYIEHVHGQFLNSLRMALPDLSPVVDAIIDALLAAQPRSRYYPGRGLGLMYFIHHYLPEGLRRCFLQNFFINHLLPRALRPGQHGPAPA
The experiment is described as follows: 11β-HSD2 activity in mouse kidney microsomes. To be noted: 100 μM. The method, then: (§2) Preparation of Rat and Mouse Liver and Kidney Microsomes
(§3) The liver and kidney microsomes were prepared as previously described ([Guo et al., 2012]). Briefly, the tissue was homogenized in […] phosphate buffered saline (PBS) containing 0.25 M sucrose, and the nuclei and large cell debris were removed by centrifugation at 1500 g for 10 min. The supernatant was transferred to a tube and the mitochondria were removed by centrifugation at 10, 000 × g for 30 min. The supernatant was transferred to an ultracentrifuge tube and centrifuged twice at 105,000 × g, the resulting microsomal precipitate was collected. The protein content was measured by the BCA kit according to the manufacturer’s instruction. The protein concentration was adjusted to 20 mg/ml. These proteins were used to measure 11β-HSD1 and 11β-HSD2 activities.
as §1
(§4) The 11β-HSD2 assay was based on rat, mouse, and human kidney microsomes, as previously described ([Ge et al., 2005]). In brief, the 11β-HSD2 activity assay tube contained 25 nM substrate (cortisol for humans, CORT for rats and mice). […] The percentage conversion of cortisol to cortisone (humans) or CORT to 11DHC (rats and mice) was calculated by dividing the radioactive count of an 11keto-steroid product by the total count associated with both substrate and product.

Experiment [3] deals with T4, 11β-HSD2 (Rattus norvegicus, UniProt P50233).
T4 construct: from tissue; host or cells: rat kidney microsomes prepared in house
T4 sequence (P50233 1-400): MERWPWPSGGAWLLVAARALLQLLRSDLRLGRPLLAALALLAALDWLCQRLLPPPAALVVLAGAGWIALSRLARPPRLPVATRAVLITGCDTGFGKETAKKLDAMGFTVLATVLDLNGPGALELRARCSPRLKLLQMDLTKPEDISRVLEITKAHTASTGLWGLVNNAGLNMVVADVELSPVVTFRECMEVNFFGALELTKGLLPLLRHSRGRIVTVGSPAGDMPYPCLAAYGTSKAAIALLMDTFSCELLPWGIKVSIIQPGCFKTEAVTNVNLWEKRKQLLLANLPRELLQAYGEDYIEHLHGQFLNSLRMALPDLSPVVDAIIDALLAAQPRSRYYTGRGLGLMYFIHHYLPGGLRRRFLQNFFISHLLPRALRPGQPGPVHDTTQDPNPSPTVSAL
Description: 11β-HSD2 activity in rat kidney microsomes. As to conditions: 100 μM. The method, then: as §2, §3, §1, §4

Take `O=C1/C(=C/c2c(F)cccc2F)CC/C1=C\c1c(F)cccc1F` [WZS08, (2E,5E)-2,5-bis(2,6-difluorobenzylidene) Cyclopentanone]: the “effect on 11β-HSD2 activity, human” value on 11β-HSD2 [1] is listed as “did not affect; also recorded: almost no effect”. Also, the inhibition (commonly the drop in the measured response relative to a control, in per cent) at 100 µM on 11β-HSD1 (100 μM, initial screening, read-out: 11β-HSD1 inhibition, human enzyme) stood at 85.4 ± 1.67%. Moreover, half-maximal inhibition against 11β-HSD1 (human liver microsomes, 25 nM cortisone, NADPH) (IC50) required 621 nM. Further, on 11β-HSD2 [2], the “effect on 11β-HSD2 activity, mouse” value was “did not affect; also recorded: almost no effect”. Moreover, the “effect on 11β-HSD2 activity, rat” value at 11β-HSD2 [3] is given as “did not affect; also recorded: almost no effect”.

These data come from publication PMC8072159, “5-Bis-(2,6-difluoro-benzylidene) Cyclopentanone Acts as a Selective 11β-Hydroxysteroid Dehydrogenase one Inhibitor to Treat Diet-Induced Nonalcoholic Fatty Liver Disease in Mice” (Frontiers in Pharmacology, 2021).
